Results from patent US11498899B2, “Nitrone herbicides” (FMC Corporation, priority 2016, dated 2022).

Key:
[1] = test system: barnyardgrass (Echinochloa crus-galli); experiment: Test A preemergence, visual injury rating 0-100 (0 no effect, 100 complete control); type: in vivo
[2] = test system: rice (Oryza sativa); experiment: Test B flooded paddy test, visual rating 0-100 (0 no effect, 100 complete control); conditions: Flood, 250 g ai/ha, applied to paddy water, rated after 13 to 15 days
[3] = test system: corn (Zea mays); experiment: Test A postemergence, visual injury rating 0-100; type: in vivo; conditions: 0 to 100 scale
[4] = test system: wheat (Triticum aestivum); experiment: Test A postemergence, visual injury rating 0-100; type: in vivo; conditions: 0 to 100 scale
[5] = test system: pigweed (Amaranthus retroflexus); experiment: Test A postemergence, visual injury rating 0-100; type: in vivo; conditions: 0 to 100 scale
[6] = test system: ragweed (common ragweed, Ambrosia elatior); experiment: Test A postemergence, visual injury rating 0-100; type: in vivo; conditions: 0 to 100 scale
[7] = test system: barnyardgrass (Echinochloa crus-galli); experiment: Test A postemergence, visual injury rating 0-100; type: in vivo; conditions: 0 to 100 scale
[8] = test system: blackgrass (Alopecurus myosuroides); experiment: Test A postemergence, visual injury rating 0-100; type: in vivo; conditions: 0 to 100 scale
[9] = test system: ryegrass, Italian (Italian ryegrass, Lolium multiflorum); experiment: Test A postemergence, visual injury rating 0-100; type: in vivo; conditions: 0 to 100 scale
[10] = test system: galium (catchweed bedstraw, Galium aparine); experiment: Test A postemergence, visual injury rating 0-100; type: in vivo; conditions: 0 to 100 scale
[11] = test system: kochia (Kochia scoparia); experiment: Test A postemergence, visual injury rating 0-100; type: in vivo; conditions: 0 to 100 scale
[12] = test system: foxtail, giant (giant foxtail, Setaria faberii); experiment: Test A postemergence, visual injury rating 0-100; type: in vivo; conditions: 0 to 100 scale
[13] = test system: ducksalad (Heteranthera limosa); experiment: Test B flooded paddy test, visual rating 0-100; conditions: Flood, 250 g ai/ha, applied to paddy water, rated after 13 to 15 days
[14] = test system: pigweed (Amaranthus retroflexus); experiment: Test A preemergence, visual injury rating 0-100; type: in vivo
[15] = test system: ragweed (common ragweed, Ambrosia elatior); experiment: Test A preemergence, visual injury rating 0-100; type: in vivo
[16] = test system: ryegrass, Italian (Italian ryegrass, Lolium multiflorum); experiment: Test A preemergence, visual injury rating 0-100; type: in vivo; conditions: 500 g ai/ha
[17] = test system: kochia (Kochia scoparia); experiment: Test A preemergence, visual injury rating 0-100; type: in vivo
[18] = test system: foxtail, giant (giant foxtail, Setaria faberii); experiment: Test A preemergence, visual injury rating 0-100; type: in vivo
[19] = test system: barnyardgrass (Echinochloa crus-galli); experiment: Test B flooded paddy test, visual rating 0-100; conditions: Flood, 250 g ai/ha, applied to paddy water, rated after 13 to 15 days

SMILES	Barnyardgrass plant response rating (0 to 100 scale) ([1]; 125 g ai/ha)	Barnyardgrass plant response rating (0 to 100 scale) ([1]; 500 g ai/ha)	Rice plant response rating (0 to 100 scale) [2]	Corn plant response rating ([3]; 125 g ai/ha)	Corn plant response rating ([3]; 500 g ai/ha)	Wheat plant response rating ([4]; 125 g ai/ha)	Wheat plant response rating ([4]; 500 g ai/ha)	Pigweed plant response rating ([5]; 125 g ai/ha)	Pigweed plant response rating ([5]; 500 g ai/ha)	Ragweed plant response rating ([6]; 125 g ai/ha)	Ragweed plant response rating ([6]; 500 g ai/ha)	Barnyardgrass plant response rating ([7]; 125 g ai/ha)	Barnyardgrass plant response rating ([7]; 500 g ai/ha)	Blackgrass plant response rating ([8]; 125 g ai/ha)	Blackgrass plant response rating ([8]; 500 g ai/ha)	Ryegrass, Italian plant response rating ([9]; 125 g ai/ha)	Ryegrass, Italian plant response rating ([9]; 500 g ai/ha)	Galium plant response rating ([10]; 125 g ai/ha)	Galium plant response rating ([10]; 500 g ai/ha)	Kochia plant response rating ([11]; 125 g ai/ha)	also measured
CCc1cc(CC)cc(C2CC(C)=[N+]([O-])C2C(=O)Nc2cccc(F)c2F)c1 (racemic) [Compound 109]	90	100	0	80	90	20	80	0	0	0	0	50	80	80	90	70	80	20	20	0	Kochia plant response rating ([11]; 500 g ai/ha): 0; Foxtail, Giant plant response rating ([12]; 125 g ai/ha): 80; Foxtail, Giant plant response rating ([12]; 500 g ai/ha): 90; Ducksalad plant response rating (0 to 100 scale) [13]: 0; Pigweed plant response rating (0 to 100 scale) ([14]; 125 g ai/ha): 0; Pigweed plant response rating (0 to 100 scale) ([14]; 500 g ai/ha): 0; Ragweed plant response rating (0 to 100 scale) ([15]; 125 g ai/ha): 0; Ragweed plant response rating (0 to 100 scale) ([15]; 500 g ai/ha): 30; Ryegrass, Italian plant response rating (0 to 100 scale) [16]: 100; Kochia plant response rating (0 to 100 scale) ([17]; 125 g ai/ha): 0; Kochia plant response rating (0 to 100 scale) ([17]; 500 g ai/ha): 50; Foxtail, Giant plant response rating (0 to 100 scale) ([18]; 125 g ai/ha): 90; Foxtail, Giant plant response rating (0 to 100 scale) ([18]; 500 g ai/ha): 90; Barnyardgrass plant response rating (0 to 100 scale) [19]: 0
CC1=[N+]([O-])C(C(=O)Nc2cccc(F)c2F)C(c2cc(C(F)(F)F)cc(C(F)(F)F)c2)C1 (racemic) [Compound 110]	90	90	0	80	90	50	80	0	20	0	70	40	90	80	90	70	80	50	70	0	Kochia plant response rating ([11]; 500 g ai/ha): 50; Foxtail, Giant plant response rating ([12]; 125 g ai/ha): 80; Foxtail, Giant plant response rating ([12]; 500 g ai/ha): 90; Ducksalad plant response rating (0 to 100 scale) [13]: 0; Pigweed plant response rating (0 to 100 scale) ([14]; 125 g ai/ha): 0; Pigweed plant response rating (0 to 100 scale) ([14]; 500 g ai/ha): 60; Ragweed plant response rating (0 to 100 scale) ([15]; 125 g ai/ha): 50; Ragweed plant response rating (0 to 100 scale) ([15]; 500 g ai/ha): 80; Ryegrass, Italian plant response rating (0 to 100 scale) [16]: 90; Kochia plant response rating (0 to 100 scale) ([17]; 125 g ai/ha): 0; Kochia plant response rating (0 to 100 scale) ([17]; 500 g ai/ha): 20; Foxtail, Giant plant response rating (0 to 100 scale) ([18]; 125 g ai/ha): 90; Foxtail, Giant plant response rating (0 to 100 scale) ([18]; 500 g ai/ha): 90; Barnyardgrass plant response rating (0 to 100 scale) [19]: 0
CC1=[N+]([O-])C(C(=O)Nc2cccc(F)c2F)C(c2cc(C)c(F)c(C)c2)C1 (racemic) [Compound 111]	90	90	0	70	90	50	70	0	20	30	70	70	90	80	80	40	80	50	70	0	Kochia plant response rating ([11]; 500 g ai/ha): 0; Foxtail, Giant plant response rating ([12]; 125 g ai/ha): 40; Foxtail, Giant plant response rating ([12]; 500 g ai/ha): 90; Ducksalad plant response rating (0 to 100 scale) [13]: 0; Pigweed plant response rating (0 to 100 scale) ([14]; 125 g ai/ha): 20; Pigweed plant response rating (0 to 100 scale) ([14]; 500 g ai/ha): 60; Ragweed plant response rating (0 to 100 scale) ([15]; 125 g ai/ha): 0; Ragweed plant response rating (0 to 100 scale) ([15]; 500 g ai/ha): 90; Ryegrass, Italian plant response rating (0 to 100 scale) [16]: 90; Kochia plant response rating (0 to 100 scale) ([17]; 125 g ai/ha): 0; Kochia plant response rating (0 to 100 scale) ([17]; 500 g ai/ha): 90; Foxtail, Giant plant response rating (0 to 100 scale) ([18]; 125 g ai/ha): 90; Foxtail, Giant plant response rating (0 to 100 scale) ([18]; 500 g ai/ha): 90; Barnyardgrass plant response rating (0 to 100 scale) [19]: 0
CC1=[N+]([O-])C(C(=O)Nc2cccc(F)c2F)C(c2cc(C)cc(C)c2)C1 (racemic) [Compound 112]	90	100	0	80	90	40	70	0	0	0	60	70	90	80	80	40	90	50	70	0	Kochia plant response rating ([11]; 500 g ai/ha): 20; Foxtail, Giant plant response rating ([12]; 125 g ai/ha): 90; Foxtail, Giant plant response rating ([12]; 500 g ai/ha): 90; Ducksalad plant response rating (0 to 100 scale) [13]: 45; Pigweed plant response rating (0 to 100 scale) ([14]; 125 g ai/ha): 0; Pigweed plant response rating (0 to 100 scale) ([14]; 500 g ai/ha): 70; Ragweed plant response rating (0 to 100 scale) ([15]; 125 g ai/ha): 40; Ragweed plant response rating (0 to 100 scale) ([15]; 500 g ai/ha): 80; Ryegrass, Italian plant response rating (0 to 100 scale) [16]: 100; Kochia plant response rating (0 to 100 scale) ([17]; 125 g ai/ha): 50; Kochia plant response rating (0 to 100 scale) ([17]; 500 g ai/ha): 90; Foxtail, Giant plant response rating (0 to 100 scale) ([18]; 125 g ai/ha): 90; Foxtail, Giant plant response rating (0 to 100 scale) ([18]; 500 g ai/ha): 100; Barnyardgrass plant response rating (0 to 100 scale) [19]: 70
